Assay results reported in patent US20230339889A1, “DERIVATIVES OF 2-OXO-N-(4-(PYRIMIDIN-4-YLOXY/THIO)PHENYL)-1,2-DIHYDROPYRIDINE-3-CARBOXAMIDE FOR USE AS PROTEIN KINASE INHIBITORS FOR THERAPY” (AUCENTRA THERAPEUTICS PTY LTD, priority 2020, published 2023).

Assays:
FLT3-ITD = experiment: ADP Glo Kinase assay; type: biochemical; settings: 1 µM compound
Protocol: (§1) Inhibition of CDKs and FLT3 were determined using ADP Glo Kinase assays, as previously described in International Patent Publication No WO 2017/020065.

TYRO3 = target: T1, TYRO3 (Homo sapiens, UniProt Q06418); experiment: Filter-binding radiometric kinase activity assay (KinaseProfiler, Eurofins); type: biochemical; settings: 1 µM compound; read-out: % Residual enzymatic activity at 1 µM TYRO3
T1 construct: purchased Eurofins Discovery (Kinase Profiler service)
T1 sequence (Q06418 41-890): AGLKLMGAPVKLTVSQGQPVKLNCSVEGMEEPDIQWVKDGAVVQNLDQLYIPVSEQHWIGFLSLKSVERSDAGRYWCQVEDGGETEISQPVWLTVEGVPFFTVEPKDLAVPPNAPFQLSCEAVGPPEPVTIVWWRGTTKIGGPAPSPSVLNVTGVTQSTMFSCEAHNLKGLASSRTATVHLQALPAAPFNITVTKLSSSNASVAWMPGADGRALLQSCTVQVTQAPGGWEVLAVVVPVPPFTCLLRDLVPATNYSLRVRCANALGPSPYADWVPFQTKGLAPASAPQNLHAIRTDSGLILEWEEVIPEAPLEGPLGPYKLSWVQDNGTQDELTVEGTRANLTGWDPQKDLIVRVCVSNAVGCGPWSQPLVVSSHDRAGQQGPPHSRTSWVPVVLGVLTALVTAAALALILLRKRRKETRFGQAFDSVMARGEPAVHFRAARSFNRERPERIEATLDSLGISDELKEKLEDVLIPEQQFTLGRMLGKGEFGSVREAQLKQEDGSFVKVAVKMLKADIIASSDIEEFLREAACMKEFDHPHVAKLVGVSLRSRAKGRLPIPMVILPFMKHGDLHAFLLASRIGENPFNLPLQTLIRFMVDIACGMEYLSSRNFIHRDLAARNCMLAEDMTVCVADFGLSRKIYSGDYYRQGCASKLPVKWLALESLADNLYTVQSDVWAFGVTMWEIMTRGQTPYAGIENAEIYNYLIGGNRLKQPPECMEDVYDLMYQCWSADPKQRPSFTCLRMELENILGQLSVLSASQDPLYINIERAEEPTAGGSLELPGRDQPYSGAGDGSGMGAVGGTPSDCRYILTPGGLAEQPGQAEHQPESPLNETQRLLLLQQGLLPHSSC
Protocol: (§2) Filter-binding radiometric kinase activity assay (Kinase Profiler™) from Eurofins Discovery was used to determine the % of inhibition and/or IC50 values. […] The reaction is initiated by the addition of the Mg/ATP mixture. After incubation for 40 minutes at room temperature, the reaction is stopped by the addition of phosphoric acid to a concentration of 0.5%. 10 µL of the reaction is then spotted onto a P30 filter mat and washed four times for 4 minutes in 0.425% phosphoric acid and once in methanol prior to drying and scintillation counting. The IC50 values were derived by fitting a sigmoidal dose-response curve to a plot of assay readout over inhibitor concentration. All fits were computed with the GraphPad Prism Software (San Diego, CA, United States of America). Ki values were derived from IC5o values using Cheng Prusoff equation (Cheng Y et al., Biochem Pharmacol 22(23):3099-3108, 1973).

AXL = target: T2, AXL (Homo sapiens, UniProt P30530); experiment: as above; type: biochemical; settings: 1 µM compound; read-out: % Residual enzymatic activity at 1 µM AXL
T2 construct: purchased Eurofins Discovery (Kinase Profiler service)
T2 sequence (P30530 26-894): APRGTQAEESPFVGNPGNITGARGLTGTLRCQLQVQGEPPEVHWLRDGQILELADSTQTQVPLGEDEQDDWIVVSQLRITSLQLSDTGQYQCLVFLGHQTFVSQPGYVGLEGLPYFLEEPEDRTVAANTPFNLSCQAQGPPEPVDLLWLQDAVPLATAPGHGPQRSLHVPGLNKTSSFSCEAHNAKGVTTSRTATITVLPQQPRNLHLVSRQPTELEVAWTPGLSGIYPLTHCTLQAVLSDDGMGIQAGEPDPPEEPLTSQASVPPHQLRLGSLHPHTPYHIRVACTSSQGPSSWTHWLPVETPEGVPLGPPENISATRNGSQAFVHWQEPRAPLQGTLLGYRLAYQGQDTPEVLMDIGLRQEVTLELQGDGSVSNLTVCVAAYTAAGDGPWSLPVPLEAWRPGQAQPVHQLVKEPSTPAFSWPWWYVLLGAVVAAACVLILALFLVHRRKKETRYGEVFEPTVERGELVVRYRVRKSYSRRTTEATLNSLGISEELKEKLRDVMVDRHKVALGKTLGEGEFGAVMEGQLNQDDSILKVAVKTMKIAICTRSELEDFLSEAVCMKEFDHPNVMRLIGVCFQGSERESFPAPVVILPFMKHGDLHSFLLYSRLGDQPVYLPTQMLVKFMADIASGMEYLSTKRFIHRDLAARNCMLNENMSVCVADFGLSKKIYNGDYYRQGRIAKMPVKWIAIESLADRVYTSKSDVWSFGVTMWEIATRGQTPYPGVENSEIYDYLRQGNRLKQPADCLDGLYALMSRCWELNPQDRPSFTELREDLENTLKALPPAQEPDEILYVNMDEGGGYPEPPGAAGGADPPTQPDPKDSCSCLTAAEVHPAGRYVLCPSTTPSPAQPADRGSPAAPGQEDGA
Protocol: as §2

MET = target: T3, MET (Homo sapiens, UniProt P08581); experiment: as above; type: biochemical; settings: 1 µM compound; read-out: % Residual enzymatic activity at 1 µM MET
T3 construct: purchased Eurofins Discovery (Kinase Profiler service)
Protocol: as §2

Mer = target: T4, Mer (Homo sapiens, UniProt Q12866); experiment: as above; type: biochemical; settings: 1 µM compound; read-out: % Residual enzymatic activity at 1 µM Mer
T4 construct: purchased Eurofins Discovery (Kinase Profiler service)
T4 sequence (Q12866 21-999): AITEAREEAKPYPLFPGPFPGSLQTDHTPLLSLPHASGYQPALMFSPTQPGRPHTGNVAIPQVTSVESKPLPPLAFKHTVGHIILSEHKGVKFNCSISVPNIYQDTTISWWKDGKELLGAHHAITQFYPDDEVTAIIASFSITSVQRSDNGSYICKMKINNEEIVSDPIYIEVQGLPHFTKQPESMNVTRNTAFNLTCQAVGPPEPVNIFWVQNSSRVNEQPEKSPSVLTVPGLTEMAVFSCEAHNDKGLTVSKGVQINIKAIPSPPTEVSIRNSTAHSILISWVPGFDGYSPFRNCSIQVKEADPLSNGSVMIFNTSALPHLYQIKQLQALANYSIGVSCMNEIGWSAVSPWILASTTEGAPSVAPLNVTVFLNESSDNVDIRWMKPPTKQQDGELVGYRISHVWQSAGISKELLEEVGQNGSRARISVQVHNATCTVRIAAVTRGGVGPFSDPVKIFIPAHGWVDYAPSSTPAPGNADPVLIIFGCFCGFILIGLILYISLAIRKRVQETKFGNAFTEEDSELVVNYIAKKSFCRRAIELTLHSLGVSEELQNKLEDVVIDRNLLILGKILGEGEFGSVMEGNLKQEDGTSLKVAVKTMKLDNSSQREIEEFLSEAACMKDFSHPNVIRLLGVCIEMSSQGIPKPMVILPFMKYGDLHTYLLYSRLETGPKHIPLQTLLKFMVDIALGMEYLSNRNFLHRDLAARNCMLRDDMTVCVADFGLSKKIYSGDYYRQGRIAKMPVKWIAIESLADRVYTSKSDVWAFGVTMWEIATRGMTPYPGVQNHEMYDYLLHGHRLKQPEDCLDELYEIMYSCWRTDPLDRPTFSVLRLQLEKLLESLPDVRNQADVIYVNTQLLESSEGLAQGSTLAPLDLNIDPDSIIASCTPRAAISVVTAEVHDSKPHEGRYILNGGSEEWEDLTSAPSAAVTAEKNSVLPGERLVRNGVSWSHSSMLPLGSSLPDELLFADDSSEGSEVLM
Protocol: as §2

MV4-11 = experiment: Proliferation assay (MTT, leukaemia cancer cell line); type: cell-based; settings: Homo sapiens; 1 µM compound, MV4-11 cells
Text: Compounds from Example 1 were subjected to standard resazurin and MTT assays on solid tumour and leukaemia cancer cell lines, respectively, as previously reported (Wang S et al., J Med Chem 47:1662-1675, 2004 and Diab S et al., CheMedChem 9:962-972, 2014).

CDK2E = CDK2E (Homo sapiens, UniProt P24941); experiment: ADP Glo Kinase assay; type: biochemical; settings: 1 µM compound; read-out: % Residual enzymatic activity at 1 µM CDK2E
Protocol: as §1

T3 sequence (P08581 25-1390): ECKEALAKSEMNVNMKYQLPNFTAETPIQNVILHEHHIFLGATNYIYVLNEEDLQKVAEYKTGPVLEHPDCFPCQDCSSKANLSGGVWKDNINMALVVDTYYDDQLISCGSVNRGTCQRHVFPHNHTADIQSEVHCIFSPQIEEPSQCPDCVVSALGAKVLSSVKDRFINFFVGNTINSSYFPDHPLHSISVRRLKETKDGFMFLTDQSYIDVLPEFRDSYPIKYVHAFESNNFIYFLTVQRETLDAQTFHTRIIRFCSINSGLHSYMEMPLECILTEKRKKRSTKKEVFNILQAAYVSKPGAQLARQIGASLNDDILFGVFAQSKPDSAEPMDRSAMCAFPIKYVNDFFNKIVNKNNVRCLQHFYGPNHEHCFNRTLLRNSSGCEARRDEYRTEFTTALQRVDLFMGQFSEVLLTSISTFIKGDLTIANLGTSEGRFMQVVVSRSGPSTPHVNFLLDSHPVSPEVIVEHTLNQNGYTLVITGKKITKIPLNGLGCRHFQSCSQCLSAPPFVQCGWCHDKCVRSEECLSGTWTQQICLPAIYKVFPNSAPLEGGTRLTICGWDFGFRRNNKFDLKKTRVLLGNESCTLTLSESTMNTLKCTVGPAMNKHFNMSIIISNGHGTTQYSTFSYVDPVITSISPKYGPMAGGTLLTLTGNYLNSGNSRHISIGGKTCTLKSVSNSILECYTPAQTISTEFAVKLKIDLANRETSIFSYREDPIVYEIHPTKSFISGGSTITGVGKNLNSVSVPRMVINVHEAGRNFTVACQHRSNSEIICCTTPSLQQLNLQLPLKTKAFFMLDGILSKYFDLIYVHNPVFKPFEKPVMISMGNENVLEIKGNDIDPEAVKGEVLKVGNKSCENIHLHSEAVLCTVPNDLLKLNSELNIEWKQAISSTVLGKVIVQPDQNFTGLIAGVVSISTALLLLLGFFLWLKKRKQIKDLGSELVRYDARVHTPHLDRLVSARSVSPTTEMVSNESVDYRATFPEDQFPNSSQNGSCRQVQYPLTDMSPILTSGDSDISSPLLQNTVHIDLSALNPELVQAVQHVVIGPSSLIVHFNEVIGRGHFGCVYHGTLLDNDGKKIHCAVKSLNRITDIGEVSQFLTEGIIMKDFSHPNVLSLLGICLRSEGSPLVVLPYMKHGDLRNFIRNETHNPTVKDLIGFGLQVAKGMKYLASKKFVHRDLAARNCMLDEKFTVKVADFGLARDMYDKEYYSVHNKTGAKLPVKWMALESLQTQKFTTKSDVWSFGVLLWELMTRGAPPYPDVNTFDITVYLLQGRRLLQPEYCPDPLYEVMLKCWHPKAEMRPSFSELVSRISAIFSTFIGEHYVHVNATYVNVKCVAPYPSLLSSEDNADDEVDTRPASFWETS

Row | Compound | % Residual enzymatic activity at 1 µM FLT3-ITD (FLT3-ITD) [%] | remaining activity at 1 µM (TYRO3) [%] | remaining activity at 1 µM (AXL) [%] | remaining activity at 1 µM (MET) [%] | remaining activity at 1 µM (Mer) [%] | activity at 1 µM (MV4-11) [%] | remaining activity at 1 µM (CDK2E) [%]
1 | Nc1ncnc(Oc2ccc(NC(=O)c3cccn(-c4ccc(OC(F)(F)F)cc4)c3=O)cc2F)c1F [Cmpd 8, N-(4-((6-amino-5-fluoropyrimidin-4-yl)oxy)-3-fluorophenyl)-2-oxo-1-(4-(trifluoromethoxy)phenyl)-1,2-dihydropyridine-3-carboxamide] | 91 | 111 | 112 | 85 | 100 | – | –
2 | Nc1ncnc(Oc2ccc(NC(=O)c3cccn(-c4ccc(C(F)(F)F)cc4)c3=O)cc2F)c1F [Cmpd 9, N-(4-((6-amino-5-fluoropyrimidin-4-yl)oxy)-3-fluorophenyl)-2-oxo-1-(4-(trifluoromethyl)phenyl)-1,2-dihydropyridine-3-carboxamide] | 88 | 106 | 105 | 64 | 85 | – | –
3 | Nc1ncnc(Oc2ccc(NC(=O)c3cccn(-c4ccc(F)cc4)c3=O)c(F)c2F)c1Cl [Cmpd 13, N-(4-((6-amino-5-chloropyrimidin-4-yl)oxy)-2,3-difluorophenyl)-1-(4-fluorophenyl)-2-oxo-1,2-dihydropyridine-3-carboxamide] | 74 | 87 | 67 | 94 | 91 | 7 | –
4 | Nc1ncnc(Oc2cc(F)c(NC(=O)c3cccn(-c4ccc(F)cc4)c3=O)cc2F)c1Cl [Cmpd 21, N-(4-((6-amino-5-chloropyrimidin-4-yl)oxy)-2,5-difluorophenyl)-1-(4-fluorophenyl)-2-oxo-1,2-dihydropyridine-3-carboxamide] | 22 | 3 | 3 | 5 | 30 | 3 | –
5 | Nc1ncnc(Oc2ccc(NC(=O)c3cccn(-c4ccc(F)cc4)c3=O)cc2Cl)c1F [Cmpd 22, N-(4-((6-amino-5-fluoropyrimidin-4-yl)oxy)-3-chlorophenyl)-1-(4-fluorophenyl)-2-oxo-1,2-dihydropyridine-3-carboxamide] | 43 | 63 | 57 | 93 | 89 | 3 | –
6 | Cc1ccc(-n2cccc(C(=O)Nc3ccc(Oc4ncnc(N)c4F)c(F)c3)c2=O)cc1 [Cmpd 35, N-(4-((6-amino-5-fluoropyrimidin-4-yl)oxy)-3-fluorophenyl)-2-oxo-1-(p-tolyl)-1,2-dihydropyridine-3-carboxamide] | – | 14 | 70 | 60 | 99 | 6 | 97
7 | Nc1ncnc(Nc2ccc(NC(=O)c3cccn(-c4ccc(F)cc4)c3=O)cc2F)c1Cl [Cmpd 36, N-(4-((6-amino-5-chloropyrimidin-4-yl)amino)-3-fluorophenyl)-1-(4-fluorophenyl)-2-oxo-1,2-dihydropyridine-3-carboxamide] | – | 70 | 97 | 87 | 99 | 4 | 96
8 | Nc1ncnc(Oc2ccc(NC(=O)c3cccn(-c4ccc(F)cc4)c3=O)c(Cl)c2)c1Cl [Cmpd 37, N-(4-((6-amino-5-chloropyrimidin-4-yl)oxy)-2-chlorophenyl)-1-(4-fluorophenyl)-2-oxo-1,2-dihydropyridine-3-carboxamide] | – | 39 | 78 | 88 | 87 | 48 | 96
9 | Nc1ncnc(Oc2ccc(NC(=O)c3cccn(-c4ccc(F)cc4)c3=O)c(Cl)c2)c1F [Cmpd 38, N-(4-((6-amino-5-fluoropyrimidin-4-yl)oxy)-2-chlorophenyl)-1-(4-fluorophenyl)-2-oxo-1,2-dihydropyridine-3-carboxamide] | – | 50 | 69 | 68 | 92 | 43 | 90
